Reference: the supplement of paper PMC10307832

Experiments:
Test in all cases: relative viability (nuclei count vs DMSO), 5 days (fraction); higher = more cells survive
Erlotinib + Navitoclax = compound: C#Cc1cccc(Nc2ncnc3cc(OCCOC)c(OCCOC)cc23)c1 [Erlotinib] + CC1(C)CCC(c2ccc(Cl)cc2)=C(CN2CCN(c3ccc(C(=O)NS(=O)(=O)c4ccc(N[C@H](CCN5CCOCC5)CSc5ccccc5)c(S(=O)(=O)C(F)(F)F)c4)cc3)CC2)C1 [Navitoclax] (partner 0.5 µM)
Summary of the method: (§1)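 Dosing by pin tool came one day after lung cancer cell lines were seeded in 1536-well plates, using either one drug or a fixed anchor-drug dose plus five library-drug doses (not always all listed) in √10 steps. After 5 days, nuclei were counted on 4× images. Relative viability is treated-well nuclei count divided by vehicle-well nuclei count, and values are medians of duplicate plates.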

Erlotinib + Lapatinib = compound: C#Cc1cccc(Nc2ncnc3cc(OCCOC)c(OCCOC)cc23)c1 [Erlotinib] + CS(=O)(=O)CCNCc1ccc(-c2ccc3ncnc(Nc4ccc(OCc5cccc(F)c5)c(Cl)c4)c3c2)o1 [Lapatinib] (partner 2 µM)
Summary of the method: as §1

Erlotinib + Pictilisib = compound: C#Cc1cccc(Nc2ncnc3cc(OCCOC)c(OCCOC)cc23)c1 [Erlotinib] + CS(=O)(=O)N1CCN(Cc2cc3nc(-c4cccc5[nH]ncc45)nc(N4CCOCC4)c3s2)CC1 [Pictilisib] (partner 1 µM)
Summary of the method: as §1

AT9283 + OSI-027 = compound: O=C(Nc1c[nH]nc1-c1nc2ccc(CN3CCOCC3)cc2[nH]1)NC1CC1 [AT9283] + COc1cccc2cc(-c3nc([C@H]4CC[C@H](C(=O)O)CC4)n4ncnc(N)c34)[nH]c12 [OSI-027] (partner 0.5 µM)
Summary of the method: as §1

AT9283 + Vorinostat = compound: O=C(Nc1c[nH]nc1-c1nc2ccc(CN3CCOCC3)cc2[nH]1)NC1CC1 [AT9283] + O=C(CCCCCCC(=O)Nc1ccccc1)NO [Vorinostat] (partner 1 µM)
Summary of the method: as §1

Row | Cell Line | relative viability (Erlotinib + Navitoclax; first compound 0.02 µM) | relative viability (Erlotinib + Navitoclax; first compound 0.2 µM) | relative viability (Erlotinib + Navitoclax; first compound 0.6325 µM) | relative viability (Erlotinib + Navitoclax; first compound 2 µM) | relative viability (Erlotinib + Lapatinib; first compound 0.2 µM) | relative viability (Erlotinib + Lapatinib; first compound 0.6325 µM) | relative viability (Erlotinib + Pictilisib; first compound 0.02 µM) | relative viability (Erlotinib + Pictilisib; first compound 0.2 µM) | relative viability (Erlotinib + Pictilisib; first compound 0.6325 µM) | relative viability (Erlotinib + Pictilisib; first compound 2 µM) | relative viability (AT9283 + OSI-027; first compound 0.003 µM) | relative viability (AT9283 + OSI-027; first compound 0.03 µM) | relative viability (AT9283 + OSI-027; first compound 0.09487 µM) | relative viability (AT9283 + OSI-027; first compound 0.3 µM) | relative viability (AT9283 + Vorinostat; first compound 0.003 µM) | relative viability (AT9283 + Vorinostat; first compound 0.03 µM) | relative viability (AT9283 + Vorinostat; first compound 0.09487 µM) | relative viability (AT9283 + Vorinostat; first compound 0.3 µM) | relative viability (Erlotinib + Lapatinib; first compound 0.02 µM) | relative viability (Erlotinib + Lapatinib; first compound 2 µM)
1 | NCI-H1975 | 1.11 | 1.07 | 1.07 | 0.977 | 0.885 | 0.908 | 0.287 | 0.253 | 0.307 | 0.255 | 0.726 | 0.706 | 0.671 | 0.344 | 0.742 | 0.666 | 0.504 | 0.281 |  | 
2 | NCI-H3122 | 1.05 | 1.04 | 1.01 | 1.03 | 1.03 | 0.982 | 0.576 | 0.614 |  | 0.598 | 0.94 | 0.645 | 0.201 | 0.115 | 0.851 | 0.978 | 0.598 | 0.138 | 1.08 | 1.01
3 | NCI-H727 | 0.447 | 0.393 | 0.384 | 0.347 | 0.873 | 0.929 | 0.456 | 0.344 | 0.346 | 0.339 | 0.657 | 0.483 | 0.487 | 0.324 | 1.07 | 0.866 | 0.815 | 0.499 | 0.821 | 0.766
4 | EMC-BAC-2 | 1.13 | 1.04 | 0.974 | 0.906 | 0.828 |  | 0.543 | 0.535 | 0.542 | 0.47 | 0.369 | 0.325 | 0.197 | 0.149 | 0.28 | 0.19 | 0.159 | 0.146 | 0.934 | 0.822
5 | NCI-H2085 | 1.23 | 0.988 | 0.893 | 0.808 | 0.74 | 0.845 | 0.459 | 0.46 | 0.513 | 0.358 | 0.896 | 0.731 | 0.553 | 0.321 | 0.775 | 0.755 | 0.631 | 0.305 | 0.775 | 
6 | NCI-H1355 | 1.02 | 0.9 | 0.812 | 0.675 | 0.98 | 1.06 | 0.499 | 0.392 | 0.407 | 0.312 | 0.399 | 0.436 | 0.276 | 0.221 | 0.602 | 0.452 | 0.388 | 0.169 | 1.03 | 0.998
7 | NCI-H1755 | 1.02 | 1 | 0.976 |  | 1.06 | 1.09 | 0.422 | 0.456 | 0.416 | 0.374 | 0.697 | 0.72 | 0.396 | 0.537 | 0.74 | 0.784 | 0.54 | 0.398 |  | 1.02
8 | COR-L 105 | 0.809 | 0.531 | 0.364 | 0.283 | 0.322 | 0.335 | 0.406 | 0.342 | 0.351 | 0.332 | 0.606 | 0.292 | 0.284 | 0.231 | 0.839 | 0.343 | 0.383 | 0.321 | 0.368 | 0.36
9 | NCI-H647 | 1.42 | 0.955 | 1.5 | 0.991 | 1.11 | 1.09 | 0.445 | 0.359 | 0.499 | 0.46 | 0.782 | 0.524 | 0.173 | 0.132 | 0.466 | 0.323 | 0.126 | 0.12 | 1.24 | 0.942
10 | BEN | 0.0747 | 0.0625 | 0.0619 | 0.0646 | 0.802 | 1.03 | 0.466 | 0.483 | 0.683 | 0.514 | 0.31 | 0.296 | 0.24 | 0.219 | 0.515 | 0.49 | 0.33 | 0.324 | 0.689 | 0.735
11 | EPLC-272H | 1.04 | 1.05 | 1.1 | 0.589 | 1.1 | 1.24 | 0.314 | 0.279 | 0.352 | 0.242 | 0.287 | 0.312 | 0.209 | 0.224 | 0.467 | 0.167 | 0.206 | 0.139 | 0.923 | 0.763
12 | HCC-15 | 0.735 | 0.68 | 0.736 | 0.617 | 0.852 | 0.93 | 0.758 |  | 0.735 | 0.659 | 0.61 | 0.412 | 0.153 | 0.157 | 0.873 | 0.426 | 0.165 | 0.166 | 0.939 | 0.785
13 | NCI-H520 | 1.17 | 1.11 | 1.29 | 1.12 | 0.759 | 0.913 | 0.262 | 0.279 | 0.335 | 0.298 | 0.256 | 0.198 | 0.185 | 0.172 | 0.56 | 0.271 | 0.223 | 0.235 | 0.825 | 
14 | EKVX | 0.939 | 0.693 | 0.289 | 0.184 | 0.178 | 0.192 | 0.405 | 0.217 | 0.191 | 0.109 | 0.661 | 0.655 | 0.503 | 0.26 | 0.673 | 0.545 | 0.302 | 0.287 | 0.206 | 0.186
15 | NCI-H596 | 1.02 | 0.751 | 1.06 | 0.813 | 1 | 0.998 | 0.383 | 0.478 | 0.383 | 0.351 | 0.704 | 0.779 | 0.665 | 0.476 | 0.642 | 0.675 | 0.686 | 0.428 |  | 1.01
16 | NCI-H2009 | 1.25 | 1.24 | 1.24 | 1.19 | 1.03 | 1.07 | 0.836 | 0.763 | 0.943 | 0.732 | 0.652 | 0.511 | 0.182 | 0.101 | 0.742 | 0.674 | 0.29 | 0.147 | 0.971 | 0.889
